Reference: patent US10004732B2 (Novartis AG, priority 2014, dated 2018)

Tests used:
Vps34 = Vps34 (Homo sapiens, UniProt Q8NEB9); experiment: Kinase Glo Luminescent Kinase Assay (Kglo), assay C; type: biochemical; conditions: read-out: Assay C VPS34 IC50
PI 3-kinase alpha [1] = target: T1, PI 3-kinase alpha (Homo sapiens, UniProt P42336); experiment: Cellular assay H1, p-Akt (S473) in Rat-1 cells, Surefire format; type: cell-based; conditions: non-asterisked data: version H1 (Surefire format), Rat-1 cells; read-out: Assay H PI3Kα IC50
Target sequence in this assay (P42336 whole entry): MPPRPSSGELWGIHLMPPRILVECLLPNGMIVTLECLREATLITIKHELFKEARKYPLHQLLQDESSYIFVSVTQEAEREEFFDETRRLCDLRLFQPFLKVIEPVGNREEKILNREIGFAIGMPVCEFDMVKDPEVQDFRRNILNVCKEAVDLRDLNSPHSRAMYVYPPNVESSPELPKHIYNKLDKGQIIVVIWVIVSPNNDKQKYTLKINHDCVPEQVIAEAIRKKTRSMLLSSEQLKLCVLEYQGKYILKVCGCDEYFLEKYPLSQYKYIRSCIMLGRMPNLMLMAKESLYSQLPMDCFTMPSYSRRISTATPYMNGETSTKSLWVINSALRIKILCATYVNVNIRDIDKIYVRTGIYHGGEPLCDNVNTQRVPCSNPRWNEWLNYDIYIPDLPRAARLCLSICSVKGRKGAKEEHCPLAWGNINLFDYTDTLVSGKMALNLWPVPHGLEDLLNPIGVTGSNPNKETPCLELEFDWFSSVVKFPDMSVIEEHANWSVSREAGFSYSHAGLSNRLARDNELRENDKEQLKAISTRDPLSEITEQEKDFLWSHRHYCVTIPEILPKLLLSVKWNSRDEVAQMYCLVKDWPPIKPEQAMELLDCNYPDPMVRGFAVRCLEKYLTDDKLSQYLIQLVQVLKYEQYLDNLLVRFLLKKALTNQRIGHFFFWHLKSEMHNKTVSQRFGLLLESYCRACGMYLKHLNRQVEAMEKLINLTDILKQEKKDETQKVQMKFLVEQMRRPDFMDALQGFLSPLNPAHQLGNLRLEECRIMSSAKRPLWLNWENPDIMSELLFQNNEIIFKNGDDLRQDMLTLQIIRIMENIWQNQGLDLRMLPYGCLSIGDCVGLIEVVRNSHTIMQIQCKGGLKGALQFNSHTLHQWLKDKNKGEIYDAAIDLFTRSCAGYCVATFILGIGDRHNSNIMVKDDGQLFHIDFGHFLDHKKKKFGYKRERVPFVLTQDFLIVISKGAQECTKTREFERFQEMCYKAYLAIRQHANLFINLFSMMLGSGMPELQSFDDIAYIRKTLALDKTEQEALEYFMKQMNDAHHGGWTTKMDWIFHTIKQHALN
Target sequence in this assay (Q63787 whole entry partner): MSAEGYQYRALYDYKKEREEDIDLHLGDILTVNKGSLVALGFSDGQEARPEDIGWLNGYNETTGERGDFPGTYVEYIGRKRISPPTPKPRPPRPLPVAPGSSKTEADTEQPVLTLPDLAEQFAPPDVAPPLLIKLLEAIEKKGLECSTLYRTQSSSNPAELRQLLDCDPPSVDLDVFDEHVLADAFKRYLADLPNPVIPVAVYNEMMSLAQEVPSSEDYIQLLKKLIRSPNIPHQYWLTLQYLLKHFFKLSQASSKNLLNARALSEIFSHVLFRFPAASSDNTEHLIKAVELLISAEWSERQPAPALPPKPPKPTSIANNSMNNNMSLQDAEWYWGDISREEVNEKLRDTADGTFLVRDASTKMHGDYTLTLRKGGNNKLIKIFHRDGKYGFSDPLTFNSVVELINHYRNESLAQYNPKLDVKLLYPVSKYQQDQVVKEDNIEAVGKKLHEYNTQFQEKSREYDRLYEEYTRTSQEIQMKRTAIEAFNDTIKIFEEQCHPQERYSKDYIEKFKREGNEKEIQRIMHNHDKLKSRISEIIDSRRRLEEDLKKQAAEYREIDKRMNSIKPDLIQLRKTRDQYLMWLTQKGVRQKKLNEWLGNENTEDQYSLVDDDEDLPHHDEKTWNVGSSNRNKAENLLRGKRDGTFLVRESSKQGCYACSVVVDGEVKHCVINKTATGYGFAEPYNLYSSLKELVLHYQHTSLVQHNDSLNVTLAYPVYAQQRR

[2] = Microsomal clearance assay (M); conditions: intrinsic clearance in rat liver microsomes
Protocol: The experiments were performed in 96-well glass plates at 37° C. on an automated Tecan EVO platform. Test compounds at a concentration of 10 mM in pure DMSO were diluted 1:1000 in water to 10 μM. […] Reactions were initiated by the addition of 150 μL of a cofactor solution containing 2 mM NADPH.

PI 3-kinase alpha [3] = target: T1, PI 3-kinase alpha; experiment: Kinase Glo Luminescent Kinase Assay (Kglo), assay A; type: biochemical; conditions: read-out: Assay A PI3Kα IC50
Target sequence in this assay (P42336 whole entry): as the sequence (P42336 whole entry) above

PI 3-kinase beta [4] = target: T2, PI 3-kinase beta (Homo sapiens, UniProt P42338); experiment: Cellular assay I1, p-Akt (S473) in Rat-1 cells, Surefire format; type: cell-based; conditions: non-asterisked data: version I1 (Surefire format), Rat-1 cells; read-out: Assay I PI3Kβ IC50
Target sequence in this assay (P42338 whole entry): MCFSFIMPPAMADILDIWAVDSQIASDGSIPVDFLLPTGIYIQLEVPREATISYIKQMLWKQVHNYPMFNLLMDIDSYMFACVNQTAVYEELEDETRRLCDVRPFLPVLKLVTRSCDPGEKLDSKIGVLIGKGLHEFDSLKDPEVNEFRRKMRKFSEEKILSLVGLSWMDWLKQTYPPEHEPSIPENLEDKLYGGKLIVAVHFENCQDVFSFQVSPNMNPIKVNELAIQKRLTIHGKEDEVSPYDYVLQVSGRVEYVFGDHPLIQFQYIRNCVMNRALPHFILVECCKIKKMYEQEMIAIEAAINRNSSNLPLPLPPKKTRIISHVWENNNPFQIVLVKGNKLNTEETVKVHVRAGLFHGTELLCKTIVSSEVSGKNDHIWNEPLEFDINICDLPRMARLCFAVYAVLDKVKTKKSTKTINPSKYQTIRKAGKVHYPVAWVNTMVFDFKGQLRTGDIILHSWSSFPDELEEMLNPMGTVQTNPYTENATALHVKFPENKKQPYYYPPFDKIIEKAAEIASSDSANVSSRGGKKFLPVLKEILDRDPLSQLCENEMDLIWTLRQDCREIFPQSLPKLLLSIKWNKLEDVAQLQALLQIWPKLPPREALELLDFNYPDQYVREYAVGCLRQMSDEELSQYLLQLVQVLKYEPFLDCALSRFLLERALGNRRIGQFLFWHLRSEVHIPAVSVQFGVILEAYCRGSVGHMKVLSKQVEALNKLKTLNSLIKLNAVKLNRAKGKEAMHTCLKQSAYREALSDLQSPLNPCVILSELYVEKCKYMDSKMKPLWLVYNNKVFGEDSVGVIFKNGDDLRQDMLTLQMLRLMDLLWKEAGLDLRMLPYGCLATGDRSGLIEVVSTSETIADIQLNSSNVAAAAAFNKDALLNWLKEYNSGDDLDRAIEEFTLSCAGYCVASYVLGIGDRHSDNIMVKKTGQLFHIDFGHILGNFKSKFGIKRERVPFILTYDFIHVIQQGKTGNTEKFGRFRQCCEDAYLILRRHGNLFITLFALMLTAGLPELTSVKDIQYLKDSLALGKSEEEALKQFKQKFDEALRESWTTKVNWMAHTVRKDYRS
Target sequence in this assay (Q63787 whole entry partner): as the sequence (Q63787 whole entry partner) above

PI 4-kinase beta = PI 4-kinase beta (Homo sapiens, UniProt Q9UBF8); experiment: Kinase Glo Luminescent Kinase Assay (Kglo), assay D; type: biochemical; conditions: read-out: Assay D PI4Kβ IC50
PI 3-kinase delta [5] = target: T3, PI 3-kinase delta (Homo sapiens, UniProt O00329); experiment: Cellular assay J1, p-Akt (S473) in Rat-1 cells, Surefire format; type: cell-based; conditions: non-asterisked data: version J1 (Surefire format), Rat-1 cells; read-out: Assay J PI3Kδ IC50
PI 3-kinase delta [6] = target: T3, PI 3-kinase delta; experiment: TR-FRET Adapta assay, assay F; conditions: read-out: Assay F PI3Kδ IC50
Target sequence in this assay (O00329 whole entry): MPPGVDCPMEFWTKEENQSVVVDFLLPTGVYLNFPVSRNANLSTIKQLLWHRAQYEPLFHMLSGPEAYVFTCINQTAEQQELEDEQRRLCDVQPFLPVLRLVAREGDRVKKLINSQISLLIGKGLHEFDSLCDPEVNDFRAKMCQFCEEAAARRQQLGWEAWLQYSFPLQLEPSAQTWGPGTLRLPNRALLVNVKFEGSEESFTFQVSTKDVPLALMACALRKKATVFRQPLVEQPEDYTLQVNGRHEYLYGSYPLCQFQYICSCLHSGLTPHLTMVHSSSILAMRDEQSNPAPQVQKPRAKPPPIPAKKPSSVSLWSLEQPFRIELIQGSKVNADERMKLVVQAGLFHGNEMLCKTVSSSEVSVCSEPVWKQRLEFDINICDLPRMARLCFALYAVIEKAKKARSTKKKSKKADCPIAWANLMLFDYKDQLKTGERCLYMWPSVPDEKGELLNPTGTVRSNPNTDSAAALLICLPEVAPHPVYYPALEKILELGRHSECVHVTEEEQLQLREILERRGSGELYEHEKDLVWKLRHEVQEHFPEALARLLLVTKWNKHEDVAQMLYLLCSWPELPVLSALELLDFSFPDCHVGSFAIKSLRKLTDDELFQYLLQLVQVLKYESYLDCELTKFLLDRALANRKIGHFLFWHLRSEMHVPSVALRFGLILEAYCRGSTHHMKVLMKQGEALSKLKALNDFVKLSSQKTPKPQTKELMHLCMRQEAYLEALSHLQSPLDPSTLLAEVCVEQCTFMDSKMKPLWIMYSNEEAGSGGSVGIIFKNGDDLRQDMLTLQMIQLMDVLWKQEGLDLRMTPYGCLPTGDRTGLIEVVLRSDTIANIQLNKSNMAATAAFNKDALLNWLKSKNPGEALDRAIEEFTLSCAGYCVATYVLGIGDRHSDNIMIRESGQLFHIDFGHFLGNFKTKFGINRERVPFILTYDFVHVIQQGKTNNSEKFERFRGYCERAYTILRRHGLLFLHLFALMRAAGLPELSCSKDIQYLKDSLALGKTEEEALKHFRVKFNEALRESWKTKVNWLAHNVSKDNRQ
Target sequence in this assay (P27986 461-568 partner): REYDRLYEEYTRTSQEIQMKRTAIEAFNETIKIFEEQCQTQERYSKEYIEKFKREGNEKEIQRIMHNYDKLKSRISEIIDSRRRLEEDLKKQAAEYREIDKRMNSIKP

PI 3-kinase gamma = PI 3-kinase gamma (Homo sapiens, UniProt P48736); experiment: TR-FRET Adapta assay, assay E; type: biochemical; conditions: read-out: Assay E PI3Kγ IC50
PI 3-kinase beta [7] = target: T2, PI 3-kinase beta; experiment: Kinase Glo Luminescent Kinase Assay (Kglo), assay B; type: biochemical; conditions: read-out: Assay B PI3Kβ IC50
Target sequence in this assay (P42338 whole entry): as the sequence (P42338 whole entry) above
Target sequence in this assay (P27986 461-568 partner): as the sequence (P27986 461-568 partner) above

mTOR = mTOR (Homo sapiens, UniProt P42345); experiment: Lanthascreen kinase binding assay, assay G; conditions: read-out: Assay G mTOR IC50
Protocol: Lanthascreen™ Kinase Binding Assay for mTOR (G)
Binding of an inhibitor to the kinase competes for binding with the tracer, resulting in a loss of FRET.
50 nL of compound dilutions were dispensed onto white 384-well small volume polystyrene plate.

Chain of Vps34 (Q8NEB9 whole entry, species assumed): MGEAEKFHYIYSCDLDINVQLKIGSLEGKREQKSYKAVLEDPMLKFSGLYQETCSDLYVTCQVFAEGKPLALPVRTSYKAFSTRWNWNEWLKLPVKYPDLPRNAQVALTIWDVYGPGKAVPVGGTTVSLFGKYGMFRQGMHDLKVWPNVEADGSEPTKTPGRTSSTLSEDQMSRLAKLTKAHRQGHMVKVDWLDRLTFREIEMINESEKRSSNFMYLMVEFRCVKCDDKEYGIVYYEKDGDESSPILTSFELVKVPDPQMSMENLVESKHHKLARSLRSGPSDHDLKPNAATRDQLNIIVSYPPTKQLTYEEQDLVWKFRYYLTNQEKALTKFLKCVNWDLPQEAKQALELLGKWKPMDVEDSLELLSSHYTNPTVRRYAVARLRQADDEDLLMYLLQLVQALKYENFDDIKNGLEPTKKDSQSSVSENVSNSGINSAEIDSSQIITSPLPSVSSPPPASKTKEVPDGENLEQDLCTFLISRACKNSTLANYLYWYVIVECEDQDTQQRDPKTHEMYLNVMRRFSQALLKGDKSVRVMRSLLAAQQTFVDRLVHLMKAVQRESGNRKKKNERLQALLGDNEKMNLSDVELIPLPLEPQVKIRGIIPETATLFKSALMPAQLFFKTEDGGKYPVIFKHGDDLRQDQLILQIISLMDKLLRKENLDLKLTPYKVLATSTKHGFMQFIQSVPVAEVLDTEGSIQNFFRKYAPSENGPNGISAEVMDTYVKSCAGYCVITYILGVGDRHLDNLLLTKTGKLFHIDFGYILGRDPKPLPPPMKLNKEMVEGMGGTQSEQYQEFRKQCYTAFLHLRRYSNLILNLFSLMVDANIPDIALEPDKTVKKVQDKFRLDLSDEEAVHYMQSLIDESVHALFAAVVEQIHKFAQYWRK

In the case of Cc1ncc(S(=O)(=O)NCC(C)(C)O)cc1-c1cnc(N)c(-n2cncn2)n1 [Example 53, 5-(5-Amino-6-(1H-1,2,4-triazol-1-yl)pyrazin-2-yl)-N-(2-hydroxy-2-methylpropyl)-6-methylpyridine-3-sulfonamide], the IC50 (Vps34) is reported as over 10 µM, the IC50 (PI 3-kinase alpha [1]) is reported as over 10 µM and the “Assay M RLM CI(int)” value [2] is reported as 29 µL/min/mg. For the same compound, the IC50 (PI 3-kinase alpha [3]) was 1.7 µM, the IC50 (PI 3-kinase beta [4]) was over 10 µM and the IC50 (PI 4-kinase beta) was over 10 µM. It also gave an IC50 (PI 3-kinase delta [5]) of over 10 µM, an IC50 (PI 3-kinase delta [6]) of 3.7 µM and an IC50 (PI 3-kinase gamma) of 0.69 µM. For the same compound, the IC50 (PI 3-kinase beta [7]) was 7 µM.

In the case of Cc1ccc(S(=O)(=O)NCC(C)(C)O)cc1-c1cnc(N)c(-c2cn(C)nn2)n1 [Example 81, 3-(5-Amino-6-(1-methyl-1H-1,2,3-triazol-4-yl)pyrazin-2-yl)-N-(2-hydroxy-2-methylpropyl)-4-methylbenzenesulfonamide], the IC50 (Vps34) is reported as over 10 µM, the IC50 (PI 3-kinase alpha [1]) is reported as over 10 µM and the “Assay M RLM CI(int)” value [2] is reported as 29 µL/min/mg. For the same compound, the IC50 (mTOR) was over 10 µM, the IC50 (PI 3-kinase alpha [3]) was 2.6 µM and the IC50 (PI 3-kinase beta [4]) was over 10 µM. The IC50 (PI 4-kinase beta) was 9 µM, the IC50 (PI 3-kinase delta [5]) was 4.04 µM and the IC50 (PI 3-kinase delta [6]) was 2.5 µM. It also gave an IC50 (PI 3-kinase gamma) of 0.077 µM and an IC50 (PI 3-kinase beta [7]) of 6.3 µM.

In the case of CCn1cc(-c2nc(-c3cc(S(=O)(=O)NCC(C)(C)O)ccc3C)cnc2N)nn1 [Example 83, 3-(5-Amino-6-(1-ethyl-1H-1,2,3-triazol-4-yl)pyrazin-2-yl)-N-(2-hydroxy-2-methylpropyl)-4-methylbenzenesulfonamide], the IC50 (Vps34) is reported as over 10 µM, the IC50 (PI 3-kinase alpha [1]) is reported as over 10 µM and the “Assay M RLM CI(int)” value [2] is reported as 45 µL/min/mg. For the same compound, the IC50 (mTOR) was over 10 µM, the IC50 (PI 3-kinase alpha [3]) was 1.9 µM and the IC50 (PI 3-kinase beta [4]) was 8.75 µM. For the same compound, the IC50 (PI 4-kinase beta) was 4.3 µM, the IC50 (PI 3-kinase delta [5]) was 4.05 µM and the IC50 (PI 3-kinase delta [6]) was 0.7 µM. It also gave an IC50 (PI 3-kinase gamma) of 0.085 µM and an IC50 (PI 3-kinase beta [7]) of 5.2 µM.

In the case of Cc1ccc(S(=O)(=O)NCCC(C)(C)O)cc1-c1cnc(N)c(-c2cnc(C3CC3)s2)n1 [Example 107, 3-(5-Amino-6-(2-cyclopropylthiazol-5-yl)pyrazin-2-yl)-N-(3-hydroxy-3-methylbutyl)-4-methylbenzenesulfonamide], the IC50 (Vps34) is reported as 3.1 µM, the IC50 (PI 3-kinase alpha [1]) is reported as 0.79 µM and the “Assay M RLM CI(int)” value [2] is reported as 119 µL/min/mg. The IC50 (mTOR) was 1.39 µM, the IC50 (PI 3-kinase alpha [3]) was 0.08 µM and the IC50 (PI 3-kinase beta [4]) was 1.29 µM. For the same compound, the IC50 (PI 4-kinase beta) was 0.94 µM, the IC50 (PI 3-kinase delta [5]) was 0.96 µM and the IC50 (PI 3-kinase delta [6]) was 0.06 µM. The IC50 (PI 3-kinase gamma) was 0.006 µM and the IC50 (PI 3-kinase beta [7]) was 2.09 µM.

For Cc1ccc(S(=O)(=O)NOC(C)C)cc1-c1cnc(N)c(-n2cncn2)n1 [Example 112.3, 3-(5-Amino-6-(1H-1,2,4-triazol-1-yl)pyrazin-2-yl)-N-isopropoxy-4-methylbenzenesulfonamide], the IC50 (Vps34) was over 10 µM, the IC50 (PI 3-kinase alpha [1]) was 0.4 µM and the “Assay M RLM CI(int)” value [2] was 123 µL/min/mg. For the same compound, the IC50 (mTOR) was 1.36 µM, the IC50 (PI 3-kinase alpha [3]) was 0.36 µM and the IC50 (PI 3-kinase beta [4]) was over 3 µM. For the same compound, the IC50 (PI 4-kinase beta) was 1.2 µM, the IC50 (PI 3-kinase delta [5]) was 0.86 µM and the IC50 (PI 3-kinase delta [6]) was 0.26 µM. It also gave an IC50 (PI 3-kinase beta [7]) of 1.1 µM.

Work on Cc1cncc(-c2nc(-c3cc(S(=O)(=O)NCCC(C)(C)O)ccc3C)cnc2N)c1 [Example 119.7] yielded an IC50 (Vps34) of over 9.1 µM, an IC50 (PI 3-kinase alpha [1]) of 6.97 µM and an IC50 (mTOR) of 4.32 µM. The IC50 (PI 3-kinase alpha [3]) was 2.98 µM, the IC50 (PI 3-kinase beta [4]) was 4.05 µM and the IC50 (PI 4-kinase beta) was 7.96 µM. For the same compound, the IC50 (PI 3-kinase delta [5]) was 5.93 µM, the IC50 (PI 3-kinase delta [6]) was 0.72 µM and the IC50 (PI 3-kinase gamma) was 0.278 µM. The IC50 (PI 3-kinase beta [7]) was over 9.1 µM.

Work on Cc1ccc(S(=O)(=O)NCCC(C)(C)O)cc1-c1cnc(N)c(-c2cc(Cl)cnc2F)n1 [Example 119.8] yielded an IC50 (Vps34) of over 9.1 µM, an IC50 (PI 3-kinase alpha [1]) of 3.85 µM and an IC50 (mTOR) of 5.94 µM. The IC50 (PI 3-kinase alpha [3]) was 1.05 µM, the IC50 (PI 3-kinase beta [4]) was 4.64 µM and the IC50 (PI 4-kinase beta) was 4.53 µM. For the same compound, the IC50 (PI 3-kinase delta [5]) was 5.2 µM, the IC50 (PI 3-kinase delta [6]) was 0.2 µM and the IC50 (PI 3-kinase gamma) was 0.167 µM. It also gave an IC50 (PI 3-kinase beta [7]) of over 9.1 µM.

For Cc1ccc(S(=O)(=O)NCCC(C)(C)O)cc1-c1cnc(N)c(-c2cnc(Cl)cc2C)n1 [Example 119.9], the IC50 (Vps34) was over 9.1 µM, the IC50 (PI 3-kinase alpha [1]) was 1.92 µM and the IC50 (mTOR) was over 9.1 µM. It also gave an IC50 (PI 3-kinase alpha [3]) of 0.33 µM, an IC50 (PI 3-kinase beta [4]) of 3.07 µM and an IC50 (PI 4-kinase beta) of 0.69 µM. For the same compound, the IC50 (PI 3-kinase delta [5]) was 4.23 µM, the IC50 (PI 3-kinase delta [6]) was 0.9 µM and the IC50 (PI 3-kinase gamma) was 0.178 µM. For the same compound, the IC50 (PI 3-kinase beta [7]) was 7.78 µM.

Cc1ccc(S(=O)(=O)NCCC(C)(C)O)cc1-c1cnc(N)c(-c2ccncc2F)n1 [Example 119.11] showed an IC50 (Vps34) of over 9.1 µM, an IC50 (PI 3-kinase alpha [1]) of 2.54 µM and an IC50 (mTOR) of over 9.1 µM. The IC50 (PI 3-kinase alpha [3]) was 0.45 µM, the IC50 (PI 3-kinase beta [4]) was 3.56 µM and the IC50 (PI 4-kinase beta) was over 9.1 µM. It also gave an IC50 (PI 3-kinase delta [5]) of 6.94 µM, an IC50 (PI 3-kinase delta [6]) of 1.1 µM and an IC50 (PI 3-kinase gamma) of 0.303 µM. The IC50 (PI 3-kinase beta [7]) was over 9.1 µM.

Work on COc1ccc(-c2nc(-c3cc(S(=O)(=O)NCCC(C)(C)O)ccc3C)cnc2N)c(C)n1 [Example 119.14] yielded an IC50 (Vps34) of over 9.1 µM, an IC50 (PI 3-kinase alpha [1]) of 3.14 µM and an IC50 (mTOR) of 8.53 µM. For the same compound, the IC50 (PI 3-kinase alpha [3]) was 1.16 µM, the IC50 (PI 3-kinase beta [4]) was 4.39 µM and the IC50 (PI 4-kinase beta) was 7.35 µM. For the same compound, the IC50 (PI 3-kinase delta [5]) was 4.96 µM, the IC50 (PI 3-kinase delta [6]) was 1.44 µM and the IC50 (PI 3-kinase gamma) was 0.667 µM. The IC50 (PI 3-kinase beta [7]) was over 9.1 µM.
